Converted amounts (≈) assume the structure as drawn. The source made the active and inactive calls. The calls are words filed in the database; no cut-off is given here.
How the values were obtained:
Staphylococcus aureus = experiment: Antibacterial activity against Staphylococcus aureus ATCC 29213 assessed as reduction in bacterial growth measured every 1 hr for 16 to 20 hrs; assay type: functional; details: time 16-20 hrs
Enterococcus faecium = experiment: Antibacterial activity against Enterococcus faecium ATCC 6569 assessed as reduction in bacterial growth measured every 1 hr for 16 to 20 hrs; assay type: functional; details: time 16-20 hrs
[1] = system: Mycolicibacterium fortuitum; experiment: Antimycobacterial activity against Mycobacterium fortuitum RA 17 assessed as reduction in bacterial growth measured every 1 hr for 16 to 20 hrs; assay type: functional; details: time 16-20 hrs
[2] = system: Mycobacterium tuberculosis H37Rv; experiment: Antimycobacterial activity against Mycobacterium tuberculosis H37Rv assessed as reduction in bacterial growth incubated for 5 days by resazurin assay; assay type: functional; details: 120 h, time 5 day
[3] = system: Mycolicibacterium fortuitum; experiment: Antimycobacterial activity against Mycobacterium fortuitum PN assessed as reduction in bacterial growth measured every 1 hr for 16 to 20 hrs; assay type: functional; details: time 16-20 hrs
Bacillus subtilis = experiment: Antibacterial activity against Bacillus subtilis 168 assessed as reduction in bacterial growth measured every 1 hr for 16 to 20 hrs; assay type: functional; details: time 16-20 hrs
[4] = Antimycobacterial activity against Mycobacterium abscessus subsp. abscessus assessed as reduction in bacterial growth measured every 1 hr for 16 to 20 hrs; assay type: functional; details: Mycobacteroides abscessus; time 16-20 hrs
[5] = system: Staphylococcus epidermidis; experiment: Antibacterial activity against Staphylococcus epidermidis assessed as reduction in bacterial growth measured every 1 hr for 16 to 20 hrs; assay type: functional; details: time 16-20 hrs
[6] = system: Mycobacteroides abscessus; experiment: Antimycobacterial activity against Mycobacterium abscessus RA 16 assessed as reduction in bacterial growth measured every 1 hr for 16 to 20 hrs; assay type: functional; details: time 16-20 hrs
[7] = system: Mycobacterium tuberculosis; experiment: Bacteriostatic activity against Mycobacterium tuberculosis mc2 6230 at 10 times MIC after 28 days by time-kill kinetics method; assay type: functional, organism-based; details: time 28.0 day
[8] = system: Mycobacterium tuberculosis H37Rv; experiment: Antimycobacterial activity against Mycobacterium tuberculosis H37Rv infected in human THP-1 macrophages assessed as reduction in microbial growth incubated for 72 hrs; assay type: functional
Pseudomonas aeruginosa = experiment: Antibacterial activity against Pseudomonas aeruginosa ATCC 27853 assessed as reduction in bacterial growth measured every 1 hr for 16 to 20 hrs; assay type: functional; details: time 16-20 hrs
Escherichia coli = experiment: Antibacterial activity against Escherichia coli BW25113 assessed as reduction in bacterial growth measured every 1 hr for 16 to 20 hrs; assay type: functional; details: time 16-20 hrs
Mycobacterium avium = experiment: Antimycobacterial activity against Mycobacterium avium CA 6 assessed as reduction in bacterial growth measured every 1 hr for 16 to 20 hrs; assay type: functional; details: time 16-20 hrs
[9] = system: Mycobacterium tuberculosis; experiment: Antimycobacterial activity against Mycobacterium tuberculosis mc2 6230 assessed as reduction in bacterial growth incubated for 10 days by time-kill kinetics method; assay type: functional; details: mc2 6230, 240 h, time 10 day
[10] = Inhibition of Mycobacterium tuberculosis MurX using UDP-MurNAc-dansylpentapeptide as substrate by fluorescence assay
Mycobacterium marinum [11] = experiment: Antimycobacterial activity against Mycobacterium marinum infected in zebrafish assessed as reduction in bacterial burden at 100 uM after 5 days post infection by microscopic analysis; assay type: functional, organism-based; details: time 5.0 day
Mycobacterium marinum [12] = experiment: Antimycobacterial activity against Mycobacterium marinum infected in zebrafish assessed as reduction in bacterial burden at 100 uM after 3 days post infection by microscopic analysis; assay type: functional, organism-based; details: time 3.0 day

Structure (SMILES): C[C@@H]([C@H](NC(=O)[C@H](CC1CCCCC1)NC(=O)N[C@@H](Cc1c[nH]c2ccccc12)C(=O)NCC(C)(C)C)C(=O)NC[C@H]1C[C@@H](O)[C@H](n2ccc(=O)[nH]c2=O)O1)N(C)C(=O)CN
- MIC (Staphylococcus aureus): > 132 µM
- MIC (Enterococcus faecium): > 132 µM
- MIC [1]: 1 µM (≈ 0.851 µg/mL)
- MIC50 [2]: 0.0225 µM (≈ 0.0191 µg/mL)
- MIC [3]: 1 µM (≈ 0.851 µg/mL)
- MIC (Bacillus subtilis): > 132 µM
- MIC [4]: 23 µM (≈ 19.6 µg/mL)
- MIC [5]: > 132 µM
- MIC [6]: 23 µM (≈ 19.6 µg/mL)
- Activity [7]: inactive
- MIC50 [8]: 6.7 µM
- MIC (Pseudomonas aeruginosa): > 132 µM
- MIC (Escherichia coli): 88 µM (≈ 74.9 µg/mL)
- MIC (Mycobacterium avium): 1 µM (≈ 0.851 µg/mL)
- MIC [9]: 0.313 µM (≈ 0.266 µg/mL)
- IC50 [10]: 60 nM

Structure (SMILES): C[C@@H]([C@H](NC(=O)[C@H](CC1CCCCC1)NC(=O)N[C@@H](Cc1c[nH]c2ccccc12)C(=O)NCc1ccccc1)C(=O)NC[C@H]1C[C@@H](O)[C@H](n2ccc(=O)[nH]c2=O)O1)N(C)C(=O)CN
- MIC50 [2]: 0.0454 µM (≈ 0.0395 µg/mL)
- MIC50 [8]: 4.6 µM
- IC50 [10]: 66 nM

Structure (SMILES): CO[C@H]1/C=C/O[C@@]2(C)Oc3c(C)c(O)c4c(O)c(c(/C=N/N5CCN(C)CC5)c(O)c4c3C2=O)NC(=O)/C(C)=C\C=C\[C@H](C)[C@H](O)[C@@H](C)[C@@H](O)[C@@H](C)[C@H](OC(C)=O)[C@@H]1C [RIFAMPIN]
- Activity (Mycobacterium marinum [11]): Active
- MIC50 [2]: 0.00153 µM (≈ 0.00126 µg/mL)

Structure (SMILES): C[C@@H]([C@H](NC(=O)[C@H](CC1CCCCC1)NC(=O)N[C@@H](Cc1c[nH]c2ccccc12)C(=O)OCc1ccccc1)C(=O)NC[C@H]1C[C@@H](O)[C@H](n2ccc(=O)[nH]c2=O)O1)N(C)C(=O)CN
- MIC50 [2]: 0.0085 µM (≈ 0.00741 µg/mL)
- MIC50 [8]: 11.3 µM
- IC50 [10]: 614 nM

Structure (SMILES): COC(=O)[C@H](Cc1c[nH]c2ccccc12)NC(=O)N[C@@H](Cc1ccc2ccccc2c1)C(=O)N[C@H](C(=O)NC[C@H]1C[C@@H](O)[C@H](n2ccc(=O)[nH]c2=O)O1)[C@H](C)N(C)C(=O)CN
- MIC50 [2]: 0.0652 µM (≈ 0.0548 µg/mL)

Structure (SMILES): CCCCCCNC(=O)[C@H](Cc1c[nH]c2ccccc12)NC(=O)N[C@@H](Cc1ccc2ccccc2c1)C(=O)N[C@H](C(=O)NC[C@H]1C[C@@H](O)[C@H](n2ccc(=O)[nH]c2=O)O1)[C@H](C)N(C)C(=O)CN
- MIC50 [2]: 0.0925 µM (≈ 0.0841 µg/mL)
- MIC50 [8]: 2.1 µM
- IC50 [10]: 49 nM

Structure (SMILES): C[C@@H]([C@H](NC(=O)[C@H](Cc1ccc2ccccc2c1)NC(=O)N[C@@H](Cc1c[nH]c2ccccc12)C(=O)O)C(=O)NC[C@H]1C[C@@H](O)[C@H](n2ccc(=O)[nH]c2=O)O1)N(C)C(=O)CN
- MIC50 [2]: 0.18 µM (≈ 0.149 µg/mL)
- MIC50 [8]: 4.3 µM

Structure (SMILES): CCCCCCOC(=O)[C@H](Cc1c[nH]c2ccccc12)NC(=O)N[C@@H](Cc1ccc2ccccc2c1)C(=O)N[C@H](C(=O)NC[C@H]1C[C@@H](O)[C@H](n2ccc(=O)[nH]c2=O)O1)[C@H](C)N(C)C(=O)CN
- MIC50 [2]: 0.0269 µM (≈ 0.0245 µg/mL)
- MIC50 [8]: 0.5 µM
- IC50 [10]: 2670 nM

Structure (SMILES): CCCCCCOC(=O)[C@H](Cc1c[nH]c2ccccc12)NC(=O)N[C@@H](CC1CCCCC1)C(=O)N[C@H](C(=O)NC[C@H]1C[C@@H](O)[C@H](n2ccc(=O)[nH]c2=O)O1)[C@H](C)N(C)C(=O)CN
- MIC50 [2]: 0.0172 µM (≈ 0.0149 µg/mL)
- MIC50 [8]: 9.5 µM
- IC50 [10]: 1390 nM

Structure (SMILES): COC(=O)[C@H](Cc1c[nH]c2ccccc12)NC(=O)N[C@@H](CC1CCCCC1)C(=O)N[C@H](C(=O)NC[C@H]1C[C@@H](O)[C@H](n2ccc(=O)[nH]c2=O)O1)[C@H](C)N(C)C(=O)CN
- MIC50 [2]: 0.0397 µM (≈ 0.0316 µg/mL)

Structure (SMILES): CCCCCCNC(=O)[C@H](Cc1c[nH]c2ccccc12)NC(=O)N[C@@H](CC1CCCCC1)C(=O)N[C@H](C(=O)NC[C@H]1C[C@@H](O)[C@H](n2ccc(=O)[nH]c2=O)O1)[C@H](C)N(C)C(=O)CN
- MIC50 [2]: 0.124 µM (≈ 0.107 µg/mL)
- MIC50 [8]: > 100 µM
- IC50 [10]: 75 nM

Structure (SMILES): C[C@@H]([C@H](NC(=O)[C@H](Cc1ccc2ccccc2c1)NC(=O)N[C@@H](Cc1c[nH]c2ccccc12)C(=O)OCc1ccccc1)C(=O)NC[C@H]1C[C@@H](O)[C@H](n2ccc(=O)[nH]c2=O)O1)N(C)C(=O)CN
- MIC50 [2]: 0.0132 µM (≈ 0.0121 µg/mL)
- MIC50 [8]: 5.1 µM
- IC50 [10]: 1380 nM

Structure (SMILES): C[C@@H]([C@H](NC(=O)[C@H](Cc1ccc2ccccc2c1)NC(=O)N[C@@H](Cc1c[nH]c2ccccc12)C(=O)OCC(C)(C)C)C(=O)NC[C@H]1C[C@@H](O)[C@H](n2ccc(=O)[nH]c2=O)O1)N(C)C(=O)CN
- MIC50 [2]: 0.021 µM (≈ 0.0188 µg/mL)
- MIC50 [8]: 1.5 µM
- IC50 [10]: 801 nM

Structure (SMILES): C[C@@H]([C@H](NC(=O)[C@H](CC1CCCCC1)NC(=O)N[C@@H](Cc1c[nH]c2ccccc12)C(=O)OCC(C)(C)C)C(=O)NC[C@H]1C[C@@H](O)[C@H](n2ccc(=O)[nH]c2=O)O1)N(C)C(=O)CN
- MIC50 [2]: 0.0059 µM (≈ 0.00503 µg/mL)
- MIC50 [8]: 12.5 µM
- IC50 [10]: 712 nM

Structure (SMILES): C[C@@H]([C@H](NC(=O)[C@H](Cc1ccc2ccccc2c1)NC(=O)N[C@@H](Cc1c[nH]c2ccccc12)C(=O)NCC(C)(C)C)C(=O)NC[C@H]1C[C@@H](O)[C@H](n2ccc(=O)[nH]c2=O)O1)N(C)C(=O)CN
- MIC (Staphylococcus aureus): > 132 µM
- MIC (Enterococcus faecium): > 132 µM
- MIC [1]: 1 µM (≈ 0.895 µg/mL)
- MIC50 [2]: 0.0419 µM (≈ 0.0375 µg/mL)
- MIC [3]: 2 µM (≈ 1.79 µg/mL)
- MIC (Bacillus subtilis): 132 µM (≈ 118 µg/mL)
- MIC [4]: 26 µM (≈ 23.3 µg/mL)
- MIC [5]: > 132 µM
- MIC [6]: 13 µM (≈ 11.6 µg/mL)
- Activity [7]: Active
- MIC50 [8]: 1.2 µM
- MIC (Pseudomonas aeruginosa): > 132 µM
- Activity (Mycobacterium marinum [12]): Active
- MIC (Escherichia coli): 132 µM (≈ 118 µg/mL)
- MIC (Mycobacterium avium): 1 µM (≈ 0.895 µg/mL)
- MIC [9]: 0.181 µM (≈ 0.162 µg/mL)
- IC50 [10]: 20 nM

Structure (SMILES): CCCCCCCCCCCCOC(=O)[C@H](Cc1c[nH]c2ccccc12)NC(=O)N[C@@H](CC1CCCCC1)C(=O)N[C@H](C(=O)NC[C@H]1C[C@@H](O)[C@H](n2ccc(=O)[nH]c2=O)O1)[C@H](C)N(C)C(=O)CN
- MIC50 [2]: 0.142 µM (≈ 0.135 µg/mL)

Structure (SMILES): C[C@@H]([C@H](NC(=O)[C@H](CC1CCCCC1)NC(=O)N[C@@H](Cc1c[nH]c2ccccc12)C(=O)O)C(=O)NC[C@H]1C[C@@H](O)[C@H](n2ccc(=O)[nH]c2=O)O1)N(C)C(=O)CN
- MIC50 [2]: 0.08 µM (≈ 0.0625 µg/mL)
- MIC50 [8]: 1.6 µM
- IC50 [10]: 54 nM

Structure (SMILES): CCCCCCCCCCCCOC(=O)[C@H](Cc1c[nH]c2ccccc12)NC(=O)N[C@@H](Cc1ccc2ccccc2c1)C(=O)N[C@H](C(=O)NC[C@H]1C[C@@H](O)[C@H](n2ccc(=O)[nH]c2=O)O1)[C@H](C)N(C)C(=O)CN
- MIC50 [2]: 0.192 µM (≈ 0.191 µg/mL)

Structure (SMILES): C[C@@H]([C@H](NC(=O)[C@H](Cc1ccc2ccccc2c1)NC(=O)N[C@@H](Cc1c[nH]c2ccccc12)C(=O)NCc1ccccc1)C(=O)NC[C@H]1C[C@@H](O)[C@H](n2ccc(=O)[nH]c2=O)O1)N(C)C(=O)CN
- MIC50 [2]: 0.0741 µM (≈ 0.0678 µg/mL)
- MIC50 [8]: 1.9 µM
- IC50 [10]: 34 nM

Reference: ChEMBL document CHEMBL5055683, “Synthetic Sansanmycin Analogues as Potent Mycobacterium tuberculosis Translocase I Inhibitors” (J Med Chem, 2021)
